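Cultured in 96-well plates, cells were exposed to test compound for 48 hours across five concentrations. GI50: concentration for 50% inhibition of growth.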 Activity calls are given as the source filed them. No stated cut-off is given here; in the data, active = GI50 up to about 1.1 µM and inactive = higher.
Experiments:
Assay in all cases: inhibition of tumour cell growth, NCI panel, 48 h
KM12 = test system: KM12
U-251 = test system: U-251
T47D = test system: T47D
MDA-MB-435 = test system: MDA-MB-435
UACC-62 = test system: UACC-62
NCI-H460 = test system: NCI-H460
NCI-H226 = test system: NCI-H226
PC-3 = test system: PC-3
SNB-75 = test system: SNB-75
SW-620 = test system: SW-620
LOX IMVI = test system: LOX IMVI
TK-10 = test system: TK-10
A498 = test system: A498
NCI/ADR-RES = test system: NCI/ADR-RES
SNB-19 = test system: SNB-19
OVCAR-4 = test system: OVCAR-4
OVCAR-5 = test system: OVCAR-5
NCI-H23 = test system: NCI-H23
HCC 2998 = test system: HCC 2998
DU-145 = test system: DU-145
MDA-N = test system: MDA-N
K562 = test system: K562
A549 = test system: A549
COLO 205 = test system: COLO 205
Hs-578T = test system: Hs-578T
HT-29 = test system: HT-29
786-0 = test system: 786-0
NCI-H522 = test system: NCI-H522
MOLT-4 = test system: MOLT-4
SF-268 = test system: SF-268
HCT-15 = test system: HCT-15
M14 = test system: M14
SF-295 = test system: SF-295
HCT-116 = test system: HCT-116
SF-539 = test system: SF-539
UO-31 = test system: UO-31
IGROV-1 = test system: IGROV-1
SR = test system: SR
HL-60 = test system: HL-60
ACHN = test system: ACHN
SK-OV-3 = test system: SK-OV-3
CCRF-CEM = test system: CCRF-CEM
Malme-3M = test system: Malme-3M
MDA-MB-231 = test system: MDA-MB-231
HOP-62 = test system: HOP-62
SK-MEL-5 = test system: SK-MEL-5
SK-MEL-28 = test system: SK-MEL-28
MCF7 = test system: MCF7
HOP-92 = test system: HOP-92
RPMI-8226 = test system: RPMI-8226
BT-549 = test system: BT-549
OVCAR-3 = test system: OVCAR-3
OVCAR-8 = test system: OVCAR-8
SN12C = test system: SN12C
EKVX = test system: EKVX
SK-MEL-2 = test system: SK-MEL-2
UACC-257 = test system: UACC-257
RXF 393 = test system: RXF 393
CAKI-1 = test system: CAKI-1

For `CCOC(=O)NC(Nc1ccc(C(=O)OCC)cc1)(C(F)(F)F)C(F)(F)F`, the GI50 (KM12) was 78.9 µM (inactive), the GI50 (U-251) was 68.1 µM (inactive) and the GI50 (T47D) was 49 µM (inactive). For the same molecule, the GI50 (MDA-MB-435) was 51.2 µM (inactive), the GI50 (UACC-62) was 13.1 µM (inactive) and the GI50 (NCI-H460) was 66.8 µM (inactive). For the same molecule, the GI50 (NCI-H226) was > 100 µM (inactive), the GI50 (PC-3) was 45 µM (inactive) and the GI50 (SNB-75) was > 100 µM (inactive). For the same molecule, the GI50 (SW-620) was 61.4 µM (inactive), the GI50 (LOX IMVI) was 4.26 µM (inactive) and the GI50 (TK-10) was > 100 µM (inactive). The GI50 (A498) was > 100 µM (inactive), the GI50 (NCI/ADR-RES) was > 100 µM (inactive) and the GI50 (SNB-19) was 96.8 µM (inactive). For the same molecule, the GI50 (OVCAR-4) was > 100 µM (inactive), the GI50 (OVCAR-5) was 79.8 µM (inactive) and the GI50 (NCI-H23) was > 100 µM (inactive). The GI50 (HCC 2998) was > 100 µM (inactive), the GI50 (DU-145) was > 100 µM (inactive) and the GI50 (MDA-N) was 49.8 µM (inactive). The GI50 (K562) was 9.29 µM (inactive), the GI50 (A549) was 50.9 µM (inactive) and the GI50 (COLO 205) was > 100 µM (inactive). For the same molecule, the GI50 (Hs-578T) was > 100 µM (inactive), the GI50 (HT-29) was > 100 µM (inactive) and the GI50 (786-0) was > 100 µM (inactive). The GI50 (NCI-H522) was > 100 µM (inactive), the GI50 (MOLT-4) was 11.1 µM (inactive) and the GI50 (SF-268) was > 100 µM (inactive). For the same molecule, the GI50 (HCT-15) was 42.9 µM, the GI50 (M14) was > 100 µM (inactive) and the GI50 (SF-295) was > 100 µM (inactive). The GI50 (HCT-116) was > 100 µM (inactive), the GI50 (SF-539) was > 100 µM (inactive) and the GI50 (UO-31) was 42.5 µM (inactive). The GI50 (IGROV-1) was 56.8 µM (inactive), the GI50 (SR) was 86.3 µM (inactive) and the GI50 (HL-60) was > 100 µM (inactive). For the same molecule, the GI50 (ACHN) was 42.7 µM (inactive), the GI50 (SK-OV-3) was > 100 µM (inactive) and the GI50 (CCRF-CEM) was 6.58 µM (inactive). The GI50 (Malme-3M) was > 100 µM (inactive), the GI50 (MDA-MB-231) was > 100 µM (inactive) and the GI50 (HOP-62) was > 100 µM (inactive). The GI50 (SK-MEL-5) was 65.2 µM (inactive), the GI50 (SK-MEL-28) was > 100 µM (inactive) and the GI50 (MCF7) was > 100 µM (inactive). For the same molecule, the GI50 (HOP-92) was > 100 µM (inactive), the GI50 (RPMI-8226) was > 100 µM (inactive) and the GI50 (BT-549) was > 100 µM (inactive). For the same molecule, the GI50 (OVCAR-3) was > 100 µM (inactive), the GI50 (OVCAR-8) was > 100 µM (inactive) and the GI50 (SN12C) was > 100 µM (inactive).
For `CN(C)S(=O)(=O)c1ccc(Nc2ccc(O)c3c2C(=O)c2c([N+](=O)[O-])ccc(O)c2C3=O)cc1`, the GI50 (KM12) was > 100 µM (inactive), the GI50 (U-251) was > 100 µM (inactive) and the GI50 (EKVX) was > 100 µM (inactive). The GI50 (T47D) was > 100 µM (inactive), the GI50 (MDA-MB-435) was > 100 µM (inactive) and the GI50 (UACC-62) was > 100 µM (inactive). For the same molecule, the GI50 (NCI-H460) was > 100 µM (inactive), the GI50 (PC-3) was > 100 µM (inactive) and the GI50 (SNB-75) was > 100 µM (inactive). The GI50 (SW-620) was 92.3 µM (inactive), the GI50 (LOX IMVI) was 64.7 µM (inactive) and the GI50 (TK-10) was 56.4 µM (inactive). For the same molecule, the GI50 (A498) was > 100 µM (inactive), the GI50 (NCI/ADR-RES) was > 100 µM (inactive) and the GI50 (SNB-19) was > 100 µM (inactive). For the same molecule, the GI50 (OVCAR-4) was > 100 µM (inactive), the GI50 (OVCAR-5) was > 100 µM (inactive) and the GI50 (NCI-H23) was > 100 µM (inactive). The GI50 (DU-145) was > 100 µM (inactive), the GI50 (MDA-N) was > 100 µM (inactive) and the GI50 (K562) was > 100 µM (inactive). The GI50 (A549) was > 100 µM (inactive), the GI50 (SK-MEL-2) was > 100 µM (inactive) and the GI50 (COLO 205) was 65.8 µM (inactive). For the same molecule, the GI50 (Hs-578T) was > 100 µM (inactive), the GI50 (UACC-257) was > 100 µM (inactive) and the GI50 (HT-29) was > 100 µM (inactive). The GI50 (786-0) was > 100 µM (inactive), the GI50 (NCI-H522) was 52.8 µM (inactive) and the GI50 (MOLT-4) was 35.5 µM (inactive). For the same molecule, the GI50 (SF-268) was > 100 µM (inactive), the GI50 (HCT-15) was greater than 100 µM and the GI50 (RXF 393) was > 100 µM (inactive). The GI50 (M14) was > 100 µM (inactive), the GI50 (SF-295) was > 100 µM (inactive) and the GI50 (HCT-116) was 72.9 µM (inactive). The GI50 (UO-31) was > 100 µM (inactive), the GI50 (IGROV-1) was > 100 µM (inactive) and the GI50 (SR) was 54.2 µM (inactive). The GI50 (HL-60) was > 100 µM (inactive), the GI50 (ACHN) was 55 µM (inactive) and the GI50 (SK-OV-3) was > 100 µM (inactive). For the same molecule, the GI50 (CCRF-CEM) was 4.39 µM (inactive), the GI50 (Malme-3M) was 57.4 µM (inactive) and the GI50 (MDA-MB-231) was 91.2 µM (inactive). For the same molecule, the GI50 (CAKI-1) was > 100 µM (inactive), the GI50 (HOP-62) was > 100 µM (inactive) and the GI50 (SK-MEL-5) was 72.3 µM (inactive). The GI50 (SK-MEL-28) was > 100 µM (inactive), the GI50 (MCF7) was > 100 µM (inactive) and the GI50 (HOP-92) was > 100 µM (inactive). For the same molecule, the GI50 (RPMI-8226) was > 100 µM (inactive), the GI50 (BT-549) was > 100 µM (inactive) and the GI50 (OVCAR-3) was > 100 µM (inactive). For the same molecule, the GI50 (OVCAR-8) was > 100 µM (inactive) and the GI50 (SN12C) was > 100 µM (inactive).
